Laboratory results as given in ChEMBL document CHEMBL5036330, “Discovery of 8,9-seco-ent-Kaurane Diterpenoids as Potential Leads for the Treatment of Triple-Negative Breast Cancer” (J Med Chem, 2021).

Assays:
MDA-MB-231 = experiment: Cytotoxicity against human MDA-MB-231 cells assessed as reduction in cell viability incubated for 96 hrs by MTT method; format: functional, cell-based; conditions: MDA-MB-231, 96 h
MDA-MB-468 = experiment: Cytotoxicity against human MDA-MB-468 cells assessed as reduction in cell viability incubated for 96 hrs by MTT method; format: functional, cell-based; conditions: MDA-MB-468, 96 h
MCF7 = experiment: Cytotoxicity against human MCF7 cells assessed as reduction in cell viability incubated for 96 hrs by MTT method; format: functional, cell-based; conditions: MCF7, 96 h
L02 = experiment: Cytotoxicity against human L02 cells assessed as reduction in cell viability incubated for 96 hrs by MTT method; format: cell-based; conditions: L02, 96 h
MCF-10A = experiment: Cytotoxicity against human MCF-10A cells assessed as reduction in cell viability incubated for 96 hrs by MTT method; format: cell-based
HEK293 = experiment: Cytotoxicity against HEK-293 cells assessed as reduction in cell viability incubated for 96 hrs by MTT method; format: cell-based; conditions: Homo sapiens, HEK293, 96 h

Structure (SMILES)	IC50 (MDA-MB-231)	IC50 (MDA-MB-468)	IC50 (MCF7)	IC50 (L02)	IC50 (MCF-10A)	IC50 (HEK293)
C=C1C(=O)C2=C[C@H]1CCC(=O)[C@@]1(C)[C@H](C[C@H]2OC(C)=O)C(C)(C)CC[C@H]1OC(C)=O	978 nM	762 nM	226 nM	–	–	–
COc1cccc2c1C(=O)c1c(O)c3c(c(O)c1C2=O)C[C@@](O)(C(=O)CO)C[C@@H]3O[C@H]1C[C@H](N)[C@H](O)[C@H](C)O1 [DOXORUBICIN]	80.5 nM	52.1 nM	–	256 nM	33 nM	106 nM
C=C(C)CC(=O)O[C@@H]1C[C@@H]2C(C)(C)CC[C@@H](O)[C@@]2(C)C(=O)CC[C@@H]2C=C1C(=O)C2=C	564 nM	890 nM	1190 nM	–	–	–
C=C1C(=O)C2=C[C@H]1CCC(=O)[C@]1(C)C(=O)CCC(C)(C)[C@H]1C[C@H]2O	124 nM	194 nM	379 nM	–	–	–
CC1(C)C(=O)CC[C@]2(C)[C@@H]1CC[C@@]13C[C@@H](CC[C@H]12)[C@@H](CO)C3	> 5000 nM	> 5000 nM	> 5000 nM	–	–	–
C=C1C(=O)[C@@]23[C@H](O)C[C@@H]4C(C)(C)CC[C@@H](O)[C@@]4(C)[C@]2(O)CC[C@@H]1[C@H]3O	153 nM	116 nM	248 nM	–	–	–
C=C1C(=O)C2=C[C@H]1CCC(=O)[C@]1(C)[C@H](O)CCC(C)(C)[C@H]1C[C@H]2OC	185 nM	121 nM	215 nM	–	–	–
C=C1C(=O)C2=C[C@H]1CCC(=O)[C@]1(C)[C@H](O)CCC(C)(C)[C@H]1C[C@H]2OC(=O)CC	983 nM	893 nM	999 nM	–	–	–
CC1(C)C(=O)CC[C@]2(C)[C@@H]1CC[C@@]13C[C@@H](CC[C@H]12)[C@@](O)(CO)C3	> 5000 nM	> 5000 nM	> 5000 nM	–	–	–
C=CC(=O)O[C@@H]1C[C@@H]2C(C)(C)CC[C@@H](OC(=O)C=C)[C@@]2(C)C(=O)CC[C@@H]2C=C1C(=O)C2=C	237 nM	395 nM	1120 nM	–	–	–
C=C1C(=O)C2=C[C@H]1CCC(=O)[C@]1(C)C(=O)CCC(C)(C)[C@H]1C[C@H]2OC(C)=O	28.7 nM	215 nM	538 nM	–	–	–
C=C1C(=O)C2=C[C@H]1CCC(=O)[C@@]1(C)[C@H](C[C@H]2OC(=O)CCl)C(C)(C)CC[C@H]1OC(C)=O	1080 nM	643 nM	235 nM	–	–	–
C=CC(=O)O[C@@H]1C[C@@H]2C(C)(C)CC[C@@H](O)[C@@]2(C)C(=O)CC[C@@H]2C=C1C(=O)C2=C	166 nM	382 nM	1220 nM	–	–	–
C=C1C(=O)C2=C[C@H]1CCC(=O)[C@@]1(C)[C@H](C[C@H]2OCC)C(C)(C)CC[C@H]1OC(C)=O	677 nM	236 nM	266 nM	–	–	–
C[C@H]1C(=O)[C@]23C[C@H]1CC[C@@]2(O)[C@]1(C)[C@H](O)CCC(C)(C)[C@H]1C[C@H]3O	> 5000 nM	> 5000 nM	> 5000 nM	–	–	–
C=C1C(=O)C2=C[C@H]1CCC(=O)[C@]1(C)[C@H](O)CCC(C)(C)[C@H]1C[C@H]2OC(C)=O	561 nM	257 nM	587 nM	–	–	–
C=C1C(=O)C2=C[C@H]1CCC(=O)[C@@]1(C)[C@H](C[C@H]2O)C(C)(C)CC[C@H]1OC(C)=O	177 nM	228 nM	120 nM	–	–	–
C=C1C(=O)C2=C[C@H]1CCC(=O)[C@]1(C)[C@H](O)CCC(C)(C)[C@H]1C[C@H]2OC(=O)c1ccccc1	466 nM	301 nM	999 nM	–	–	–
C=C1C(=O)O[C@H]2C3=C(CC[C@@H]12)[C@@]1(C)[C@H](CC3=O)C(C)(C)CC[C@H]1OC(C)=O	1770 nM	842 nM	1240 nM	–	–	–
C=C1C(=O)[C@]23O[C@H]2[C@H]1CCC(=O)[C@]1(C)[C@H](O)CCC(C)(C)[C@H]1C[C@H]3O	473 nM	319 nM	1600 nM	–	–	–
CC1(C)C(=O)CC[C@]2(C)[C@@H]1CC[C@]13C[C@H]4C[C@H](O[C@@]4(C)C1)[C@H]32	> 5000 nM	> 5000 nM	> 5000 nM	–	–	–
C[C@H]1C(=O)C2=C[C@H]1CCC(=O)[C@]1(C)[C@H](O)CCC(C)(C)[C@H]1C[C@H]2O	> 5000 nM	> 5000 nM	> 5000 nM	–	–	–
C=C1C(=O)C2=C[C@H]1CCC(=O)[C@]1(C)[C@H](O)CCC(C)(C)[C@H]1C[C@H]2OC(=O)CCl	551 nM	909 nM	1090 nM	–	–	–
C=C1C(=O)C2=C[C@H]1CCC(=O)[C@]1(C)C(=O)CCC(C)(C)[C@H]1C[C@H]2OC(=O)c1ccccc1	2000 nM	2070 nM	882 nM	–	–	–
C=C1C(=O)C2=C[C@H]1CCC(=O)[C@]1(C)C(=O)CCC(C)(C)[C@H]1C[C@H]2OC(=O)CCl	1610 nM	345 nM	505 nM	–	–	–
